What was measured:
Settings in all cases: exposure time: 72 h
E13 [1] = patient-derived glioblastoma stem cells of classical subtype; assay: surviving fraction (nuclei count normalised to DMSO); higher = more cells surviving (less toxic)
E21 [2] = patient-derived glioblastoma stem cells of mesenchymal subtype; assay: as above
E28 [3] = patient-derived glioblastoma stem cells of classical subtype; assay: as above
E31 [4] = patient-derived glioblastoma stem cells of proneural subtype; assay: as above
E34 [5] = patient-derived glioblastoma stem cells of proneural subtype; assay: as above
E57 [6] = patient-derived glioblastoma stem cells of mesenchymal subtype; assay: as above
FT3469 [7] = normal neural stem cell line; assay: as above
E13 [8] = assay: phenotypic distance (Euclidean, principal components) from DMSO controls (arbitrary units); higher = stronger morphological change
E21 [9] = assay: as above
E28 [10] = assay: as above
E31 [11] = assay: as above
E34 [12] = assay: as above
E57 [13] = assay: as above
FT3469 [14] = assay: as above
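For phenotypic distance (Euclidean, principal components) from DMSO controls in this document: cell Painting imaging in 384-well plates, CellProfiler features reduced to at least 20 principal components, Euclidean distance versus same-plate DMSO vehicle wells (0.1% v/v), median over six images per well.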
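For surviving fraction (nuclei count normalised to DMSO) in this document: nuclei counted by high-content imaging of Hoechst-stained cells in laminin-coated 384-well plates, relative to 0.1% DMSO vehicle wells, with staurosporine as cell-death control.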

CCC(=O)OCC(=O)[C@@]1(OC(=O)CC)[C@H](C)C[C@H]2[C@H]3[C@H]([C@@H](O)C[C@@]21C)[C@@]1(C)C=CC(=O)C=C1C[C@H]3Cl [Alclometasone dipropionate]
Settings	phenotypic distance	surviving fraction
E13 [1], 4.1 nM	–	0.975
E13 [1], 12.3 nM	–	0.888
E13 [1], 37 nM	–	0.926
E13 [1], 111.1 nM	–	0.859
E13 [1], 333.3 nM	–	0.951
E13 [1], 1000 nM	–	0.974
E13 [1], 3000 nM	–	0.671
E13 [8], 4.1 nM	1.28	–
E13 [8], 12.3 nM	1.12	–
E13 [8], 37 nM	1.27	–
E13 [8], 111.1 nM	1.15	–
E13 [8], 333.3 nM	1.25	–
E13 [8], 1000 nM	1.24	–
E13 [8], 3000 nM	1.47	–
E21 [2], 4.1 nM	–	1.32
E21 [2], 12.3 nM	–	1.26
E21 [2], 37 nM	–	1.21
E21 [2], 111.1 nM	–	1.39
E21 [2], 333.3 nM	–	1.2
E21 [2], 1000 nM	–	1.2
E21 [2], 3000 nM	–	1.1
E21 [9], 4.1 nM	1.94	–
E21 [9], 12.3 nM	2.13	–
E21 [9], 37 nM	2.45	–
E21 [9], 111.1 nM	3.04	–
E21 [9], 333.3 nM	2.13	–
E21 [9], 1000 nM	2.23	–
E21 [9], 3000 nM	2.27	–
E28 [3], 4.1 nM	–	1.25
E28 [3], 12.3 nM	–	0.854
E28 [3], 37 nM	–	1.17
E28 [3], 111.1 nM	–	0.928
E28 [3], 333.3 nM	–	1.08
E28 [3], 1000 nM	–	1.38
E28 [3], 3000 nM	–	0.939
E28 [10], 4.1 nM	0.573	–
E28 [10], 12.3 nM	0.69	–
E28 [10], 37 nM	0.865	–
E28 [10], 111.1 nM	0.821	–
E28 [10], 333.3 nM	0.465	–
E28 [10], 1000 nM	1.06	–
E28 [10], 3000 nM	0.433	–
E31 [4], 4.1 nM	–	1.3
E31 [4], 12.3 nM	–	1.46
E31 [4], 37 nM	–	1.4
E31 [4], 111.1 nM	–	1.41
E31 [4], 333.3 nM	–	1.12
E31 [4], 1000 nM	–	1.19
E31 [4], 3000 nM	–	1.23
E31 [11], 4.1 nM	2.71	–
E31 [11], 12.3 nM	4.05	–
E31 [11], 37 nM	4.11	–
E31 [11], 111.1 nM	3.84	–
E31 [11], 333.3 nM	2.94	–
E31 [11], 1000 nM	3.4	–
E31 [11], 3000 nM	3.3	–
E34 [5], 4.1 nM	–	1.1
E34 [5], 12.3 nM	–	1.15
E34 [5], 37 nM	–	1.1
E34 [5], 111.1 nM	–	1.1
E34 [5], 333.3 nM	–	0.991
E34 [5], 1000 nM	–	1.06
E34 [5], 3000 nM	–	0.984
E34 [12], 4.1 nM	0.626	–
E34 [12], 12.3 nM	1.12	–
E34 [12], 37 nM	0.662	–
E34 [12], 111.1 nM	1.42	–
E34 [12], 333.3 nM	1.36	–
E34 [12], 1000 nM	1.38	–
E34 [12], 3000 nM	1.48	–
E57 [6], 4.1 nM	–	1.12
E57 [6], 12.3 nM	–	1.18
E57 [6], 37 nM	–	1.1
E57 [6], 111.1 nM	–	1.07
E57 [6], 333.3 nM	–	1.11
E57 [6], 1000 nM	–	1.14
E57 [6], 3000 nM	–	1.13
E57 [13], 4.1 nM	1.91	–
E57 [13], 12.3 nM	2.63	–
E57 [13], 37 nM	2.58	–
E57 [13], 111.1 nM	2.62	–
E57 [13], 333.3 nM	3.15	–
E57 [13], 1000 nM	3.25	–
E57 [13], 3000 nM	2.81	–
FT3469 [7], 4.1 nM	–	1.16
FT3469 [7], 12.3 nM	–	1.29
FT3469 [7], 37 nM	–	1.33
FT3469 [7], 111.1 nM	–	1.15
FT3469 [7], 333.3 nM	–	1.07
FT3469 [7], 1000 nM	–	1.19
FT3469 [7], 3000 nM	–	1.02
FT3469 [14], 4.1 nM	1.11	–
FT3469 [14], 12.3 nM	1.62	–
FT3469 [14], 37 nM	1.67	–
FT3469 [14], 111.1 nM	2.12	–
FT3469 [14], 333.3 nM	1.8	–
FT3469 [14], 1000 nM	1.92	–
FT3469 [14], 3000 nM	1.23	–
